# Legend:
# [1] = tested on: Escherichia coli; experiment: Antibacterial activity against Escherichia coli MG1655 harboring GyrB R136C mutant assessed as minimum inhibitory concentration required for >=90% inhibition of bacterial growth in presence of 50 ug/ml phenylalanine-arginine beta-naphthylamide; format: functional
# [2] = tested on: Klebsiella pneumoniae; experiment: Antibacterial activity against wild type Klebsiella pneumoniae ATCC 10031 assessed as minimum inhibitory concentration required for >=90% inhibition of bacterial growth in presence of 10 ug/ml phenylalanine-arginine beta-naphthamide; format: functional
# [3] = tested on: Klebsiella pneumoniae; experiment: Antibacterial activity against wild type Klebsiella pneumoniae ATCC 10031 harboring GyrA S83Y mutant assessed as minimum inhibitory concentration required for >=90% inhibition of bacterial growth in presence of 10 ug/ml phenylalanine-arginine beta-naphthamide; format: functional
# [4] = tested on: Staphylococcus aureus; experiment: Antibacterial activity against […] Staphylococcus aureus ATCC 25923 assessed as minimum inhibitory concentration required for >=90% inhibition of bacterial growth by CLSI protocol based broth microdilution assay; format: functional
# [5] = molecular target: DNA gyrase (Staphylococcus aureus) (UniProt P0A0K8+P20831); experiment: Inhibition of Staphylococcus aureus DNA gyrase assessed as residual activity at 1 uM using biotinylated oligonucleotide as substrate incubated for 30 mins in presence of ATP by fluorescence-based microplate reader assay relative to control; format: protein-complex assay
# [6] = tested on: Klebsiella pneumoniae; experiment: Antibacterial activity against Klebsiella pneumoniae ATCC 700603 assessed as bacterial growth inhibition at 50 uM incubated for 24 hrs by CLSI protocol based broth microdilution assay relative to control; format: functional
# [7] = tested on: Streptococcus pyogenes; experiment: Antibacterial activity against Streptococcus pyogenes ATCC 19653 assessed as minimum inhibitory concentration required for >=90% inhibition of bacterial growth by CLSI protocol based broth microdilution assay; format: functional
# [8] = tested on: Klebsiella pneumoniae; experiment: Antibacterial activity against Klebsiella pneumoniae ATCC 10031 assessed as minimum inhibitory concentration required for >=90% inhibition of bacterial growth in presence of phenylalanine-arginine beta-naphthylamide by CLSI protocol based broth microdilution assay; format: functional
# [9] = tested on: Escherichia coli; experiment: Antibacterial activity against efflux pump d effect ive Escherichia coli JW5503 harbouring tolC mutant assessed as bacterial growth inhibition at 50 uM incubated for 24 hrs by CLSI protocol based broth microdilution assay relative to control; format: functional
# [10] = tested on: Pseudomonas aeruginosa; experiment: Antibacterial activity against Pseudomonas aeruginosa ATCC 27853 assessed as minimum inhibitory concentration required for >=90% inhibition of bacterial growth in presence of phenylalanine-arginine beta-naphthylamide by CLSI protocol based broth microdilution assay; format: functional
# [11] = tested on: Klebsiella pneumoniae; experiment: Antibacterial activity against wild type Klebsiella pneumoniae ATCC 10031 harboring GyrA S83F/D87G mutant assessed as minimum inhibitory concentration required for >=90% inhibition of bacterial growth in presence of 10 ug/ml phenylalanine-arginine beta-naphthamide; format: functional
# [12] = tested on: Enterococcus faecalis; experiment: Antibacterial activity against Enterococcus faecalis ATCC 29212 assessed as bacterial growth inhibition at 50 uM incubated for 24 hrs by CLSI protocol based broth microdilution assay relative to control; format: functional
# [13] = tested on: Klebsiella pneumoniae; experiment: Antibacterial activity against wild type Klebsiella pneumoniae ATCC 10031 harboring GyrA S83F/D87G and ParC S80I mutants assessed as minimum inhibitory concentration required for >=90% inhibition of bacterial growth in presence of 10 ug/ml phenylalanine-arginine beta-naphthamide; format: functional
# [14] = tested on: Enterococcus faecium; experiment: Antibacterial activity against vancomycin-resistant Enterococcus faecium ATCC 700221 assessed as minimum inhibitory concentration required for >=90% inhibition of bacterial growth by CLSI protocol based broth microdilution assay; format: functional
# [15] = tested on: Escherichia coli; experiment: Antibacterial activity against Escherichia coli MG1655 harboring […]/D87N and ParC S80I/E84G mutants assessed as minimum inhibitory concentration required for >=90% inhibition of bacterial growth in presence of 50 ug/ml phenylalanine-arginine beta-naphthylamide; format: functional
# [16] = tested on: Escherichia coli; experiment: Antibacterial activity against outer membrane impaired Escherichia coli JD17464 harboring lpxC mutant assessed as bacterial growth inhibition at 50 uM incubated for 24 hrs by CLSI protocol based broth microdilution assay relative to control; format: functional
# [17] = tested on: Escherichia coli; experiment: Antibacterial activity against Escherichia coli MG1655 harboring […] mutant assessed as minimum inhibitory concentration required for >=90% inhibition of bacterial growth in presence of 50 ug/ml phenylalanine-arginine beta-naphthylamide; format: functional
# [18] = tested on: Klebsiella pneumoniae; experiment: Antibacterial activity against wild type Klebsiella pneumoniae ATCC 10031 harboring GyrA S83F mutant assessed as minimum inhibitory concentration required for >=90% inhibition of bacterial growth in presence of 10 ug/ml phenylalanine-arginine beta-naphthamide; format: functional
# [19] = tested on: Escherichia coli; experiment: Antibacterial activity against wild type Escherichia coli MG1655 assessed as minimum inhibitory concentration required for >=90% inhibition of bacterial growth in presence of 50 ug/ml phenylalanine-arginine beta-naphthylamide; format: functional
# [20] = tested on: Staphylococcus aureus; experiment: Antibacterial activity against Staphylococcus aureus ATCC 29213 assessed as minimum inhibitory concentration required for >=90% inhibition of bacterial growth by CLSI protocol based broth microdilution assay; format: functional
# [21] = tested on: Shigella flexneri; experiment: Antibacterial activity against Shigella flexneri HNCMB 20018 assessed as minimum inhibitory concentration required for >=90% inhibition of bacterial growth in presence of phenylalanine-arginine beta-naphthylamide by CLSI protocol based broth microdilution assay; format: functional
# [22] = molecular target: T1, DNA gyrase (Escherichia coli, UniProt P0AES4+P0AES6); experiment: Inhibition of Escherichia coli DNA gyrase assessed as conversion of NADH to NAD+ by ATPase assay; format: protein-complex assay
# [23] = tested on: Enterococcus faecalis; experiment: Antibacterial activity against Enterococcus faecalis ATCC 29212 assessed as minimum inhibitory concentration required for >=90% inhibition of bacterial growth by CLSI protocol based broth microdilution assay; format: functional
# [24] = tested on: Escherichia coli; experiment: Antibacterial activity against Escherichia coli ATCC 25922 assessed as bacterial growth inhibition at 50 uM incubated for 24 hrs by CLSI protocol based broth microdilution assay relative to control; format: functional
# [25] = molecular target: T1, DNA gyrase; experiment: Inhibition of Escherichia coli DNA gyrase using biotinylated oligonucleotide as substrate incubated for 30 mins in presence of ATP by fluorescence-based microplate reader assay; format: protein-complex assay
# [26] = tested on: Staphylococcus aureus; experiment: Antibacterial activity against methicillin-resistant Staphylococcus aureus ATCC 43300 assessed as minimum inhibitory concentration required for >=90% inhibition of bacterial growth in presence of 50% inactivated human serum by CLSI protocol based broth microdilution assay; format: functional
# [27] = tested on: Escherichia coli; experiment: Antibacterial activity against Escherichia coli MG1655 harboring […]/D87N mutant assessed as minimum inhibitory concentration required for >=90% inhibition of bacterial growth in presence of 50 ug/ml phenylalanine-arginine beta-naphthylamide; format: functional
# [28] = tested on: Enterococcus faecium; experiment: Antibacterial activity against Enterococcus faecium ATCC 35667 assessed as bacterial growth inhibition at 50 uM incubated for 24 hrs by CLSI protocol based broth microdilution assay relative to control; format: functional
# [29] = tested on: Staphylococcus aureus; experiment: Antibacterial activity against methicillin-resistant and vancomycin-intermediate Staphylococcus aureus ATCC 700699 assessed as minimum inhibitory concentration required for >=90% inhibition of bacterial growth by CLSI protocol based broth microdilution assay; format: functional
# [30] = tested on: Klebsiella pneumoniae; experiment: Antibacterial activity against wild type Klebsiella pneumoniae ATCC 10031 harboring GyrA S83F/D87G and ParC S80I/E84G mutants assessed as minimum inhibitory concentration required for >=90% inhibition of bacterial growth in presence of 10 ug/ml phenylalanine-arginine beta-naphthamide; format: functional
# DNA gyrase (Staphylococcus aureus), sequence (P0A0K8 2-644 limits assumed): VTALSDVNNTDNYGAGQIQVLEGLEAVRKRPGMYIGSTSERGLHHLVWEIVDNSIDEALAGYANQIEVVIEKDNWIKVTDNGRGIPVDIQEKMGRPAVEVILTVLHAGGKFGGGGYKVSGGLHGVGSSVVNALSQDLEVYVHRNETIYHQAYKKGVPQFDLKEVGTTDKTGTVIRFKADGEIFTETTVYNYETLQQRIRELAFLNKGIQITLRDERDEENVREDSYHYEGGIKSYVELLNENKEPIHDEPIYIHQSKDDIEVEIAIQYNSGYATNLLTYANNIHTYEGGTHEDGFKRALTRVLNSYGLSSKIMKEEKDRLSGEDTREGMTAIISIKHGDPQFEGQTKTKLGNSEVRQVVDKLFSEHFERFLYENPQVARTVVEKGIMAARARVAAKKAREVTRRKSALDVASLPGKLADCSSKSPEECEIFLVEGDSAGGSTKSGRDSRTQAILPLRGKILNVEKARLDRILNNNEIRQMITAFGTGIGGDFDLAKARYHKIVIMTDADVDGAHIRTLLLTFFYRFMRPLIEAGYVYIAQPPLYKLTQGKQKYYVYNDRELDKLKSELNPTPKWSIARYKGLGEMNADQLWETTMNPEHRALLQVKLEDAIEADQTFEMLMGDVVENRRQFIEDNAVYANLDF
# DNA gyrase (Staphylococcus aureus), sequence (P20831 whole entry partner): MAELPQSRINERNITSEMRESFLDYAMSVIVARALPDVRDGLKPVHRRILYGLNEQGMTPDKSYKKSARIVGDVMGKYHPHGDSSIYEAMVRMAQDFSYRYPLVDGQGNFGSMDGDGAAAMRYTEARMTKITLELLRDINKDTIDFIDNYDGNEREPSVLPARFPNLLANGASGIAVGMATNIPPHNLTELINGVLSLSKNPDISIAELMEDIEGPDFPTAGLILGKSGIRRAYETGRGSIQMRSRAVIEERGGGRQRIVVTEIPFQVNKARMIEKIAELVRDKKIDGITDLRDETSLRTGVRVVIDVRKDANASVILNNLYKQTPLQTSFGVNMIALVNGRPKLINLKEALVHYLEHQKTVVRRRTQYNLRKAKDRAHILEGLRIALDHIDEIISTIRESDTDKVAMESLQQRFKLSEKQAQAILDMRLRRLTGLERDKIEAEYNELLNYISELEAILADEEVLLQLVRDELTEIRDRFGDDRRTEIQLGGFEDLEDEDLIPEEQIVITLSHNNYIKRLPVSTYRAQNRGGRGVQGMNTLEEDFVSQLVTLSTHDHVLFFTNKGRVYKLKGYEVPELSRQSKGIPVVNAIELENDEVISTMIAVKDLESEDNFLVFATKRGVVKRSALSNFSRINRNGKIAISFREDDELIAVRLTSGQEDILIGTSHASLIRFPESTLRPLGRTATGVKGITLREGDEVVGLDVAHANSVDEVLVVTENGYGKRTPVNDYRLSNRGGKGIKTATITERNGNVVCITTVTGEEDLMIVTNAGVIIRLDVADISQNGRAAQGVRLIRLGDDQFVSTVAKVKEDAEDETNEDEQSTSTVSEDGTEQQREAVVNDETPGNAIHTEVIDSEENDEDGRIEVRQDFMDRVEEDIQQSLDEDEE
smiles,measurement,setting,value
CCn1cc(C(=O)O)c(=O)c2ccc(NC(=O)c3[nH]c(C)c(Cl)c3Cl)cc21,MIC,[1],2.5 µM
same,MIC,[2],1.2 µM
same,MIC,[3],1.2 µM
same,MIC,[4],2.5 µM
same,Activity,[5],90%
same,inhibition at 50 µM,[6],7%
same,MIC,[7],0.72 µM
same,MIC,[8],> 32 µM
same,inhibition at 50 µM,[9],54%
same,MIC,[10],> 32 µM
same,MIC,[11],2.5 µM
same,inhibition at 50 µM,[12],99%
same,MIC,[13],1.2 µM
same,MIC,[14],0.72 µM
same,MIC,[15],2.5 µM
same,inhibition at 50 µM,[16],11%
same,MIC,[17],2.5 µM
same,MIC,[18],1.2 µM
same,MIC,[19],2.5 µM
same,MIC,[20],0.78 µM
same,MIC,[21],> 32 µM
same,IC50,[22],1000 nM
same,MIC,[23],1.56 µM
same,inhibition at 50 µM,[24],11%
same,IC50,[25],1400 nM
same,MIC,[26],32 µM
same,MIC,[27],2.5 µM
same,inhibition at 50 µM,[28],97%
same,MIC,[29],2.5 µM
same,MIC,[30],1.2 µM
